Data: PubChem BioAssay (NCI)
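Step 1: Grow cells in 96-well plates. Step 2: Expose to compound for 48 hours at 5 concentrations. Step 3: Interpolate endpoints linearly; if unreached, use highest concentration. At the GI50, growth is halved. Definition used: TGI = concentration required for complete inhibition of growth.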

Experiments:
Assay in all cases: inhibition of tumour cell growth, NCI panel, 48 h
A549 NSCLC = system: A549 NSCLC
HCT-15 colon = system: HCT-15 colon
HL-60(TB) leukemia = system: HL-60(TB) leukemia
HT29 colon = system: HT29 colon
NCI-H226 lung = system: NCI-H226 lung
RXF 393 renal = system: RXF 393 renal
SF-295 CNS = system: SF-295 CNS
SNB-75 CNS = system: SNB-75 CNS
SW-620 colon = system: SW-620 colon
UACC-62 melanoma = system: UACC-62 melanoma

SMILES	GI50 (A549 NSCLC) [µM]	TGI (A549 NSCLC) [µM]	GI50 (HCT-15 colon) [µM]	TGI (HCT-15 colon) [µM]	GI50 (HL-60(TB) leukemia) [µM]	TGI (HL-60(TB) leukemia) [µM]	GI50 (HT29 colon) [µM]	TGI (HT29 colon) [µM]	GI50 (NCI-H226 lung) [µM]	TGI (NCI-H226 lung) [µM]	GI50 (RXF 393 renal) [µM]	TGI (RXF 393 renal) [µM]	GI50 (SF-295 CNS) [µM]	TGI (SF-295 CNS) [µM]	GI50 (SNB-75 CNS) [µM]	TGI (SNB-75 CNS) [µM]	GI50 (SW-620 colon) [µM]	TGI (SW-620 colon) [µM]	GI50 (UACC-62 melanoma) [µM]	TGI (UACC-62 melanoma) [µM]
COC(=O)c1c(O)c([N+](=O)[O-])cc2c1c1c(n2Cc2ccccc2)C(=O)c2ccccc2C1=O	20.4	> 100	34.6	> 100	25.7	> 100	18.9	> 100	26.4	62.9	12.3	61.9	52.1	> 100	> 100	> 100	2.97	11.4	30.9	> 100
Cc1ccc(NC(=O)C(=O)CC(=O)C2CCOC2=O)c(C)c1 (stereo not given)		> 100		> 100		> 100		> 100		> 100		> 100		> 100		> 100		> 100		> 100
CN(C)c1ncc(-c2ccc(C(F)(F)F)cc2)c(NC2CCCCCC2)n1	18.2	57.1	17.1	48.8	15	34	11.4	32.9	12.6	28.8	10.8	27.2	17.5	37.4	20.6	93.8	15	37.3	14.7	35.7
CCN(CC)c1ccc2c(c1)Oc1nc(N)c(C#N)c(N)c1C2Sc1ccc(OC)cc1 (stereo not given)	1.99	3.59	1.53	3.11	2.28	6.44	2.1	4.27	1.82	3.55	1.88	3.35	1.93	3.6	1.51	2.89	1.9	3.62	1.72	3.34
Cc1nc([C@H]2CC[C@H]3[C@@H]4CCC5=CC(=O)CC[C@]5(C)[C@H]4CC[C@]23C)cs1	5.25	> 100	4.97	> 100	1.53	> 100	5.15	> 100	31.7	> 100	10.6	> 100	2.21	> 100	> 27	> 100	7.66	> 100	4.1	> 100
O=C(CC1(O)C(=O)Nc2ccccc21)c1ccco1 (stereo not given)		> 100		> 100		> 100		> 100		> 100		> 100		> 100		> 100		> 100		> 100
O=C(O)c1cc2ccccc2oc1=O		> 100		> 100		> 100		> 100		> 100		> 100		> 100		> 100		> 100		> 100
C#CCN(N=O)C(=O)NC(CCCNC(=O)OCc1ccccc1)C(=O)OCc1ccccc1 (stereo not given)		> 100		> 100		42.9		> 100		> 100		84.4		> 100		> 100		> 100		> 100
